Reference: patent publication US5470855A, “Certain heterocyclic thiazole derivatives and their therapeutic use” (Sanofi, priority 1989, dated 1995)

Key:
[1] = test system: guinea pig; test: PAF-induced bronchospasm in the guinea pig; assay type: in vivo
[2] = test system: mouse; test: protection against PAF-induced lethal systemic shock in the mouse; assay type: in vivo; details: oral dose of 5 mg/kg, PAF 100 μg/kg
Source text: Haemostas, 56(1) 40-44 (1986) and that of protection against lethal systemic shock in the mouse, which is described in J. Pharmacol. Exp. Ther 247(2) 617-23 (1988).

[3] = test system: rabbit platelets; test: inhibition of the aggregation of rabbit platelets induced by the PAF-acether; assay type: cell-based; details: Oryctolagus cuniculus, Platelet, PAF introduced into the medium at 4×10^-10 M, read-out: IC50 (concentration inhibiting 50% of the aggregation induced by the PAF)
Source text: Thus in vitro it is possible to study the inhibition of the aggregation of rabbit platelets induced by the PAF-acether according to the method described in Thrombosis Research 41 211-226 (1986). […] Therap.

Row | SMILES | protection from the lethal systemic shock induced by the PAF [2] | other results
1 | CC(C)c1cc(C(C)C)c(-c2csc(N(CCN(C)C)Cc3cccnc3)n2)c(C(C)C)c1 [Example 2] | – | duration of complete inhibition of the bronchospasm ([1]; IV dose of 1 mg/kg): more than 96 hours; duration of complete inhibition of the bronchospasm ([1]; oral dose of 3 mg/kg): more than 96 hours
2 | Cc1oc(N(CCN(C)C)Cc2cccnc2)nc1-c1ccc(Cl)cc1Cl [Example 79, 2(N-[2-N',N'-dimethylaminoethyl]N-[3-pyridylmethyl]amino) 4-(2,4-dichlorophenyl)5-methyl oxazole] | protect the mouse from the lethal systemic shock | –
3 | Cc1sc(N(CCN(C)C)Cc2cccnc2)nc1-c1ccc(Cl)cc1Cl [Example 50, 2-(N-[2-N',N'-dimethylaminoethyl]N-[3-pyridylmethyl]amino)4-(2,4-dichlorophenyl) 5-methyl thiazole] | protect the mouse from the lethal systemic shock | –
4 | CC(C)c1cc(C(C)C)c(-c2nc(N(CCN(C)C)Cc3cccnc3)sc2Br)c(C(C)C)c1 [Example 90, 2-(N-[2-N',N'-dimethylaminoethyl]N-[3-pyridylmethyl]amino) 5-bromo 4-(2,4,6-triisopropylphenyl) thiazole] | protect the mouse from the lethal systemic shock | –
5 | Cc1nnc2n1-c1sc(CCC(=O)N3CCOCC3)cc1C(c1ccccc1Cl)=NC2 [WEB 2086] | – | IC50 [3]: 50 nM
6 | Cc1cc(C)c(-c2csc(N(CCN(C)C)Cc3cccnc3)n2)c(C)c1 [Example 14, 2-(N-[2-N',N'-dimethylaminoethyl]N-[3-pyridylmethyl]amino)4-(2,4,6-trimethylphenyl)thiazole] | protect the mouse from the lethal systemic shock | –
7 | CC(C)c1cc(C(C)C)c(-c2nc(N(CCN(C)C)Cc3cccnc3)sc2Cl)c(C(C)C)c1 [Example 91, 2-(N-[2-N',N'-dimethylaminoethyl]N-[3-pyridylmethyl]amino) 5-chloro 4-(2,4,6-triisopropylphenyl)thiazole] | protect the mouse from the lethal systemic shock | –
